From patent publication US4797427A, “Aromatic diamines containing sulfonic acid aryl esters, a process for their production and their use in the production of polyurethane plastics” (Bayer Aktiengesellschaft, priority 1987, dated 1989)

Assay: Ames test
Format: cell-based

Structure (SMILES): Cc1c(N)cc(S(=O)(=O)Oc2ccccc2)cc1N [2,6-diaminotoluene-4-sulfonic acid phenyl ester]
- Ames test: Ames-negative
